How the values were obtained:
Assay type in all cases: cell-based
[1] = target: EP2 subtype of the human PGE2 receptor (Homo sapiens, UniProt P43116); experiment: cAMP antagonism test on the human EP2 receptor (HTRF cAMP detection); conditions: hEP2 receptor, read-out: Antagonism hEP2 IC50
In short: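 Read-out is a competitive HTRF for cAMP: lysate cAMP displaces cAMP-d2 from Eu cryptate-labelled antibody, and antagonism raises the 665/620 nm ratio. Compound (0.8 nM–16.5 μM) added to EP2 cells 20 min at RT before 60 min PGE2 challenge (3× stock 1.5 nM) with IBMX, followed by 20 min lysis.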

[2] = target: EP4 subtype of the human PGE2 receptor (Homo sapiens, UniProt P35408); experiment: cAMP antagonism test on the human EP4 receptor (HTRF cAMP detection); conditions: selectivity towards hEP4, IC50 measured by cAMP antagonism test
In short: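 Competitive HTRF cAMP read-out (cAMP-d2 vs Eu-cryptate anti-cAMP antibody, 665/620 nm ratio) on lysed human EP4 cells. Compound (0.8 nM–16.5 μM) applied 20 min at RT before 60 min PGE2 challenge (3× solution 0.3 nM, IBMX present); 20 min lysis precedes reading.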

human PGD receptor = target: T1, human PGD receptor (Homo sapiens, UniProt Q13258); experiment: cAMP antagonism test on the human prostaglandin D receptor (HTRF cAMP detection); conditions: selectivity towards hDP, IC50 measured by cAMP antagonism test
T1 sequence (Q13258 1-359): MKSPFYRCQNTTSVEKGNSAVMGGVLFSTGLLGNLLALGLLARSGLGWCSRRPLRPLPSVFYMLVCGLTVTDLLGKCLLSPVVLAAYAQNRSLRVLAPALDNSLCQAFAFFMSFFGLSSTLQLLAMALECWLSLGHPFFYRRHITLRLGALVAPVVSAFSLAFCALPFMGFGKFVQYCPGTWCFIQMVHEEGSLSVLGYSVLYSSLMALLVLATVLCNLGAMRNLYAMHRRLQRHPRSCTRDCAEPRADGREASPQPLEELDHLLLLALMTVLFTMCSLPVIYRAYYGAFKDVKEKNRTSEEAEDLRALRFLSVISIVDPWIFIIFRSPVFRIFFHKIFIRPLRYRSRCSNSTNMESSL
In short: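 HTRF competition read-out (665/620 nm ratio ×10000), where higher FRET means less cAMP, i.e. antagonism. Compounds (0.8 nM–16.5 μM) were preincubated 20 min at RT with cells and cAMP-d2, PGD2 (3× solution, 6 nM) in IBMX-containing PBS added for 30 min at RT, then cells lysed 20 min.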

EP4 subtype of the human PGE2 receptor, sequence (P35408 whole entry): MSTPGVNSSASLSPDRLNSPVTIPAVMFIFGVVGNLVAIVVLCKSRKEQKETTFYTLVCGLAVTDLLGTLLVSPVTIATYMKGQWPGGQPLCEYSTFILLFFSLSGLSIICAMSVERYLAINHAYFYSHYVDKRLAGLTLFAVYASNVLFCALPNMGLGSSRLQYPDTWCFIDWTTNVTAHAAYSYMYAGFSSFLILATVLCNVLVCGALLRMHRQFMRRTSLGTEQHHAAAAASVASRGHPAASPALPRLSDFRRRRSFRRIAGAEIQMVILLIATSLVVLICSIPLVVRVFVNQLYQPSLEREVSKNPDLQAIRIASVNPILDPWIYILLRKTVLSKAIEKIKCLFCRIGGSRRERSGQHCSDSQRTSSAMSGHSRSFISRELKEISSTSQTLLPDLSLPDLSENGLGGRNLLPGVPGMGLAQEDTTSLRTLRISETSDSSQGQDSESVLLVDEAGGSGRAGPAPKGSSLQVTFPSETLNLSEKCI
EP2 subtype of the human PGE2 receptor, sequence (P43116 whole entry): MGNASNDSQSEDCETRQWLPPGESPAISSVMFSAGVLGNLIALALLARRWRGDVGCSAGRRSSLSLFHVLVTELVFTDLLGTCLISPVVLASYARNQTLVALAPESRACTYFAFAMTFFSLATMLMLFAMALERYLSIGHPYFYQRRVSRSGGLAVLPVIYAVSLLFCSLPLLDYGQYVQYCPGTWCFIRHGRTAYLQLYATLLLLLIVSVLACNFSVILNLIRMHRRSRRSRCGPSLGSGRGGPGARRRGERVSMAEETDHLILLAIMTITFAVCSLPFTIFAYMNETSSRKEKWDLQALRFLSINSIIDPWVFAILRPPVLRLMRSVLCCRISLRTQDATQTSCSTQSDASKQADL

COCCNC(=O)c1ccc2nn(CC3CCN(C(=O)c4ccc(Br)c(C)c4)CC3)cc2c1C [Example 332, 2-{[1-(4-bromo-3-methylbenzoyl)piperidin-4-yl]methyl}-N-(2-methoxyethyl)-4-methyl-2H-indazol-5-carboxamide]
IC50 [1]: 5.47 nM
Selectivity hEP2/hEP4 [2]: xxx (xxx > 100)
Selectivity hEP2/hDP (human PGD receptor): xxx (xxx > 100)

COCCNC(=O)c1ccc2nn(CC3CCN(C(=O)c4ccc(C(C)(C)C)cc4)CC3)cc2c1C [Example 333, 2-{[1-(4-tert-butylbenzoyl)piperidin-4-yl]methyl}-N-(2-methoxyethyl)-4-methyl-2H-indazol-5-carboxamide]
IC50 [1]: 6.42 nM
Selectivity hEP2/hEP4 [2]: xxx (xxx > 100)
Selectivity hEP2/hDP (human PGD receptor): xxx (xxx > 100)

COCCNC(=O)c1ccc2nn(CC3CCN(C(=O)c4ccc(C(C)(C)O)cc4)CC3)cc2c1C [Example 334, 2-({1-[4-(1-hydroxy-1-methylethyl)benzoyl]piperidin-4-yl}methyl)-N-(2-methoxyethyl)-4-methyl-2H-indazol-5-carboxamide]
IC50 [1]: 74.2 nM
Selectivity hEP2/hEP4 [2]: xxx (xxx > 100)
Selectivity hEP2/hDP (human PGD receptor): xxx (xxx > 100)

COCCNC(=O)c1ccc2nn(CC3CCN(C(=O)c4ccc(C5CCCCC5)cc4)CC3)cc2c1C [Example 335, 2-{[1-(4-cyclohexylbenzoyl)piperidin-4-yl]methyl}-N-(2-methoxyethyl)-4-methyl-2H-indazol-5-carboxamide]
IC50 [1]: 5.09 nM
Selectivity hEP2/hEP4 [2]: xxx (xxx > 100)
Selectivity hEP2/hDP (human PGD receptor): xxx (xxx > 100)

COCCNC(=O)c1ccc2nn(CC3CCN(C(=O)c4ccc5cc(OC)ccc5c4)CC3)cc2c1C [Example 336, N-(2-methoxyethyl)-2-{[1-(6-methoxy-2-naphthoyl)piperidin-4-yl]methyl}-4-methyl-2H-indazol-5-carboxamide]
IC50 [1]: 5.59 nM
Selectivity hEP2/hEP4 [2]: xxx (xxx > 100)
Selectivity hEP2/hDP (human PGD receptor): xxx (xxx > 100)

COCCNC(=O)c1ccc2nn(CC3CCN(C(=O)c4cnc(-c5ccccc5)s4)CC3)cc2c1C [Example 337, N-(2-methoxyethyl)-4-methyl-2-({1-[(2-phenylthiazol-5-yl)carbonyl]piperidin-4-yl}methyl)-2H-indazol-5-carboxamide]
IC50 [1]: 18.1 nM
Selectivity hEP2/hEP4 [2]: xxx (xxx > 100)
Selectivity hEP2/hDP (human PGD receptor): xxx (xxx > 100)

COCCNC(=O)c1ccc2nn(CC3CCN(C(=O)c4nc5ccccc5n4C)CC3)cc2c1C [Example 338, N-(2-methoxyethyl)-4-methyl-2-({1-[(1-methyl-1H-benzimidazol-2-yl)carbonyl]-piperidin-4-yl}methyl)-2H-indazol-5-carboxamide]
IC50 [1]: 28 nM
Selectivity hEP2/hEP4 [2]: xxx (xxx > 100)
Selectivity hEP2/hDP (human PGD receptor): xxx (xxx > 100)

COCCNC(=O)c1ccc2nn(CC3CCN(C(=O)c4cnc(-c5ccccc5)o4)CC3)cc2c1C [Example 339, N-(2-methoxyethyl)-4-methyl-2-({1-[(2-phenyloxazol-5-yl)carbonyl]piperidin-4-yl}methyl)-2H-indazol-5-carboxamide]
IC50 [1]: 7.15 nM
Selectivity hEP2/hEP4 [2]: xxx (xxx > 100)
Selectivity hEP2/hDP (human PGD receptor): xxx (xxx > 100)

COCCNC(=O)c1ccc2nn(CC3CCN(C(=O)c4nc5ccccc5o4)CC3)cc2c1C [Example 340, 2-{[1-(benzoxazol-2-ylcarbonyl)piperidin-4-yl]methyl}-N-(2-methoxyethyl)-4-methyl-2H-indazol-5-carboxamide]
IC50 [1]: 19.9 nM
Selectivity hEP2/hEP4 [2]: xxx (xxx > 100)
Selectivity hEP2/hDP (human PGD receptor): xxx (xxx > 100)

COCCNC(=O)c1ccc2nn(CC3CCN(C(=O)c4ccc(C(C)(C)C#N)cc4)CC3)cc2c1C [Example 341, 2-({1-[4-(1-cyano-1-methylethyl)benzoyl]piperidin-4-yl}methyl)-N-(2-methoxy-ethyl)-4-methyl-2H-indazol-5-carboxamide]
IC50 [1]: 55.3 nM
Selectivity hEP2/hEP4 [2]: xxx (xxx > 100)
Selectivity hEP2/hDP (human PGD receptor): xxx (xxx > 100)

COCCNC(=O)c1ccc2nn(CC3CCN(C(=O)c4ccc(Oc5ncccn5)cc4)CC3)cc2c1C [Example 342, N-(2-methoxyethyl)-4-methyl-2-({1-[4-(pyrimidin-2-yloxy)benzoyl]piperidin-4-yl}methyl)-2H-indazol-5-carboxamide]
IC50 [1]: 103 nM
Selectivity hEP2/hEP4 [2]: xxx (xxx > 100)
Selectivity hEP2/hDP (human PGD receptor): xxx (xxx > 100)

COCCNC(=O)c1ccc2nn(CC3CCN(C(=O)c4ccc(Oc5cccnc5)cc4)CC3)cc2c1C [Example 343, N-(2-methoxyethyl)-4-methyl-2-({1-[4-(3-pyridyloxy)benzoyl]piperidin-4-yl}methyl)-2H-indazol-5-carboxamide]
IC50 [1]: 42.4 nM
Selectivity hEP2/hEP4 [2]: xxx (xxx > 100)
Selectivity hEP2/hDP (human PGD receptor): xxx (xxx > 100)

COCCNC(=O)c1ccc2nn(CC3CCN(C(=O)c4ccc5ccc(OC)cc5c4)CC3)cc2c1C [Example 344, N-(2-methoxyethyl)-2-{[1-(7-methoxy-2-naphthoyl)piperidin-4-yl]methyl}-4-methyl-2H-indazol-5-carboxamide]
IC50 [1]: 10.3 nM
Selectivity hEP2/hEP4 [2]: xxx (xxx > 100)
Selectivity hEP2/hDP (human PGD receptor): xxx (xxx > 100)

COCCNC(=O)c1ccc2nn(CC3CCN(C(=O)c4ccc(Oc5ccccn5)cc4)CC3)cc2c1C [Example 346, N-(2-methoxyethyl)-4-methyl-2-({1-[4-(2-pyridyloxy)benzoyl]piperidin-4-yl}-methyl)-2H-indazol-5-carboxamide]
IC50 [1]: 14.9 nM
Selectivity hEP2/hEP4 [2]: xxx (xxx > 100)
Selectivity hEP2/hDP (human PGD receptor): xxx (xxx > 100)

COCCNC(=O)c1ccc2nn(CC3CCN(C(=O)c4ccc(Oc5nccc(C(F)(F)F)n5)cc4)CC3)cc2c1C [Example 347, N-(2-methoxyethyl)-4-methyl-2-{[1-(4-{[4-(trifluoromethyl)pyrimidin-2-yl]-oxy}benzoyl)piperidin-4-yl]methyl}-2H-indazol-5-carboxamide]
IC50 [1]: 7.88 nM
Selectivity hEP2/hEP4 [2]: xxx (xxx > 100)
Selectivity hEP2/hDP (human PGD receptor): xxx (xxx > 100)

COCCNC(=O)c1ccc2nn(CC3CCN(C(=O)c4nc5ccccc5s4)CC3)cc2c1C [Example 348, 2-{[1-(benzothiazol-2-ylcarbonyl)piperidin-4-yl]methyl}-N-(2-methoxyethyl)-4-methyl-2H-indazol-5-carboxamide]
IC50 [1]: 8.88 nM
Selectivity hEP2/hEP4 [2]: xxx (xxx > 100)
Selectivity hEP2/hDP (human PGD receptor): xxx (xxx > 100)

COCCNC(=O)c1ccc2nn(CC3CCN(C(=O)c4ccc(Oc5ccc(C(F)(F)F)nc5)cc4)CC3)cc2c1C [Example 349, N-(2-methoxyethyl)-4-methyl-2-{[1-(4-{[6-(trifluoromethyl)pyridin-3-yl]oxy}-benzoyl)piperidin-4-yl]methyl}-2H-indazol-5-carboxamide]
IC50 [1]: 4.82 nM
Selectivity hEP2/hEP4 [2]: xxx (xxx > 100)
Selectivity hEP2/hDP (human PGD receptor): xxx (xxx > 100)

COCCNC(=O)c1ccc2nn(CC3CCN(C(=O)c4ccc(Oc5cccc(C(F)(F)F)n5)cc4)CC3)cc2c1C [Example 350, N-(2-methoxyethyl)-4-methyl-2-{[1-(4-{[6-(trifluoromethyl)pyridin-2-yl]oxy}-benzoyl)piperidin-4-yl]methyl}-2H-indazol-5-carboxamide]
IC50 [1]: 8.41 nM
Selectivity hEP2/hEP4 [2]: xxx (xxx > 100)
Selectivity hEP2/hDP (human PGD receptor): xxx (xxx > 100)
